In patent US20240050577A1, “CDK INHIBITORS AND PHARMACEUTICAL USES THEREOF” (RISEN (SUZHOU) PHARMA TECH CO., LTD., priority 2022, published 2024):

Test system: OVCAR3 cells
Experiment: Cell proliferation study (Cell Titer Glo, 72 h)
Assay type: cell-based
Settings: Homo sapiens, OVCAR-3, luminescence, read-out: IC50, inhibitory effect on cellular proliferation
Method: OVCAR3 (Cobioer, CBP60294) cell line in logarithmic growth phase was used for these experiments. The cell density was adjusted to 1.1×10^4/mL and the cells were inoculated into a 96-well cell culture plate (Corning, 3599), 95 μL per well (the number of cells per well was 1×10^3). The culture plate was placed in an incubator, with 5% carbon dioxide, at 37° C. and incubated overnight. On the next day, a 10 mM stock solution of test compound was prepared in DMSO (Sigma, RNBF5902). After gradient dilution, a series of working solutions with different concentrations of test compound was prepared using complete medium. Working solution was added into the corresponding wells of the orifice plate, and the plate was placed in a 5% carbon dioxide incubator and cultivated at 37° C. for 72 h, and then removed from the incubator. To each well was added 50 μL Cell Tier Glo (Promega, G7573), and the plate was incubated at room temperature for 10 min, followed by luminescence detection with an enzyme marker. The inhibition curve was obtained with GraphPad 7.0 software using four-parameter equation.

SMILES	IC50
Cc1nc2c(F)cc(-c3nc(Nc4ccc(NS(=O)(=O)CCNC(=O)CO[C@@H]5C[C@H](C)CC[C@H]5C(C)C)cc4)ncc3F)cc2n1C(C)C (racemic) [Compound 26]	1 to 5 µM
CC(C)N1CCOc2c(F)cc(-c3nc(Nc4ccc(C5CCN(CCCCCCCCCOc6cccc7c6C(=O)N(C6CCC(=O)NC6=O)C7=O)CC5)cn4)ncc3F)cc21 (centres unmarked) [Compound 1]	> 10 µM
CC(C)N1CCOc2c(F)cc(-c3nc(Nc4ccc(C5CCN(CCOCCOCCNc6cccc7c6C(=O)N(C6CCC(=O)NC6=O)C7=O)CC5)cn4)ncc3F)cc21 (centres unmarked) [Compound 2]	> 10 µM
CC(C)N1CCOc2c(F)cc(-c3nc(Nc4ccc(C5CCN(C(=O)COCCOCCNc6cccc7c6C(=O)N(C6CCC(=O)NC6=O)C7=O)CC5)cn4)ncc3F)cc21 (centres unmarked) [Compound 5]	< 0.1 µM
CC(C)N1CCOc2c(F)cc(-c3nc(Nc4ccc(C5CCN(CCOCCOCCOCCNc6cccc7c6C(=O)N(C6CCC(=O)NC6=O)C7=O)CC5)cn4)ncc3F)cc21 (centres unmarked) [Compound 6]	1 to 5 µM
CC(C)N1CCOc2c(F)cc(-c3nc(Nc4ccc(C5CCN(C(=O)CCCCCCCCOc6cccc7c6C(=O)N(C6CCC(=O)NC6=O)C7=O)CC5)cn4)ncc3F)cc21 (centres unmarked) [Compound 7]	> 10 µM
CC(C)N1CCOc2c(F)cc(-c3nc(Nc4ccc(C5CCN(C6CC7(CCN(c8cc9c(cc8F)C(=O)N(C8CCC(=O)NC8=O)C9=O)CC7)C6)CC5)cn4)ncc3F)cc21 (centres unmarked) [Compound 18, 2-(2,6-dioxo-3-piperidyl)-5-fluoro-6-[2-[4-[6-[[5-fluoro-4-(8-fluoro-4-isopropyl-2,3-dihydro-1,4-benzoxazin-6-yl)pyrimidin-2-yl]amino]-3-pyridyl]-1-piperidyl]-7-azaspiro[3.5]nonan-7-yl]isoindoline-1,3-dione]	> 10 µM
CC(C)N1CCOc2c(F)cc(-c3nc(NC4CCN(S(=O)(=O)C5CCN(CC6CCN(c7ccc8c(c7)C(=O)N(C7CCC(=O)NC7=O)C8=O)CC6)CC5)CC4)ncc3F)cc21 (centres unmarked) [Compound 19, 2-(2,6-dioxo-3-piperidyl)-5-[4-[[4-[[4-[[5-fluoro-4-(8-fluoro-4-isopropyl-2,3-dihydro-1,4-benzoxazin-6-yl)pyrimidin-2-yl]amino]-1-piperidyl]sulfonyl]-1-piperidyl]methyl]-1-piperidyl]isoindoline-1,3-dione]	0.101 to 1 µM
CC(C)N1CCOc2c(F)cc(-c3nc(Nc4ccc(S(=O)(=O)NCCOCc5cn(CCOCCOCCNc6cccc7c6C(=O)N(C6CCC(=O)NC6=O)C7=O)nn5)cc4)ncc3F)cc21 (centres unmarked) [Compound 20, N-[2-[[1-[2-[2-[2-[[2-(2,6-dioxo-3-piperidyl)-1,3-dioxo-isoindolin-4-yl]amino]ethoxy]ethoxy]ethyl]triazol-4-yl]methoxy]ethyl]-4-[[5-fluoro-4-(8-fluoro-4-isopropyl-2,3-dihydro-1,4-benzoxazin-6-yl)pyrimidin-2-yl]amino]benzenesulfonamide]	> 10 µM
CC(C)N1CCOc2c(F)cc(-c3nc(Nc4ccc(S(=O)(=O)NCCOCc5cn(CCOCCOCCNc6cc7c(cc6F)C(=O)N(C6CCC(=O)NC6=O)C7=O)nn5)cc4)ncc3F)cc21 (centres unmarked) [Compound 21, N-[2-[[1-[2-[2-[2-[[2-(2,6-dioxo-3-piperidyl)-6-fluoro-1,3-dioxo-isoindolin-5-yl]amino]ethoxy]ethoxy]ethyl]triazol-4-yl]methoxy]ethyl]-4-[[5-fluoro-4-(8-fluoro-4-isopropyl-2,3-dihydro-1,4-benzoxazin-6-yl)pyrimidin-2-yl]amino]benzenesulfonamide]	1 to 5 µM
C[C@@]1(O)CCC[C@H]1n1c(=O)ccc2cnc(Nc3ccc(S(=O)(=O)C4CCN(C5CC6(CCN(c7cc8c(cc7F)C(=O)N(C7CCC(=O)NC7=O)C8=O)CC6)C5)CC4)cc3)nc21 (some centres unmarked) [Compound 22]	> 10 µM
C[C@@]1(O)CCC[C@H]1n1c(=O)ccc2cnc(Nc3ccc(S(=O)(=O)C4CCN(CC5CCN(c6cc7c(cc6F)C(=O)N(C6CCC(=O)NC6=O)C7=O)CC5)CC4)cc3)nc21 (some centres unmarked) [Compound 23]	> 10 µM
CC(C)[C@@H]1CC[C@@H](C)C[C@H]1OCC(=O)NCCS(=O)(=O)N1CCC(Nc2ncc(F)c(-c3cc(F)c4c(c3)N(C(C)C)CCO4)n2)CC1 [Compound 27]	> 10 µM
CC(C)N1CCOc2c(F)cc(-c3nc(Nc4ccc(C5CCN(CCCCCCOc6cccc7c6C(=O)N(C6CCC(=O)NC6=O)C7=O)CC5)cn4)ncc3F)cc21 (centres unmarked) [Compound 28]	> 10 µM
CC(C)N1CCOc2c(F)cc(-c3nc(Nc4ccc(C5CCN(CCCCNC(=O)COc6cccc7c6C(=O)N(C6CCC(=O)NC6=O)C7=O)CC5)nc4)ncc3F)cc21 (centres unmarked) [Compound 30]	0.101 to 1 µM
CC(C)N1CCOc2c(F)cc(-c3nc(Nc4ccc(S(N)(=O)=O)cc4)ncc3F)cc21 [Compound 31]	0.101 to 1 µM
Cc1ccsc1C(=O)n1nc(Nc2ccc(S(=O)(=O)NCCOCc3cn(CCOCCOCCNc4cccc5c4C(=O)N(C4CCC(=O)NC4=O)C5=O)nn3)cc2)nc1N (centres unmarked) [Compound 32]	> 10 µM
CC(C)N1CCOc2c(F)cc(-c3nc(Nc4ccc(S(=O)(=O)N5CCN(CC6CCN(c7ccc8c(c7)C(=O)N(C7CCC(=O)NC7=O)C8=O)CC6)CC5)cc4)ncc3F)cc21 (centres unmarked) [Compound 33]	> 10 µM
C[C@@]1(O)CCC[C@H]1n1c(=O)c(Cl)cc2cnc(NC3CCN(S(=O)(=O)C4CCN(C5CC6(CCN(c7cc8c(cc7F)C(=O)N(C7CCC(=O)NC7=O)C8=O)CC6)C5)CC4)CC3)nc21 (some centres unmarked) [Compound 34]	> 10 µM

SMILES	IC50
C[C@@]1(O)CCC[C@H]1n1c(=O)c(C(F)F)cc2cnc(NC3CCN(S(=O)(=O)C4CCN(C5CC6(CCN(c7cc8c(cc7F)C(=O)N(C7CCC(=O)NC7=O)C8=O)CC6)C5)CC4)CC3)nc21 (some centres unmarked) [Compound 35]	0.101 to 1 µM
C[C@@]1(O)CCC[C@H]1n1c(=O)ccc2cnc(NC3CCN(S(=O)(=O)C4CCN(C(=O)C56CC(NCC7CCN(c8cc9c(cc8F)C(=O)N(C8CCC(=O)NC8=O)C9=O)CC7)(C5)C6)CC4)CC3)nc21 (some centres unmarked) [Compound 36]	0.101 to 1 µM
Cc1nc2c(F)cc(-c3nc(Nc4ccc(S(=O)(=O)N5CCC6(CCN(C(=O)COc7cccc8c7C(=O)N(C7CCC(=O)NC7=O)C8=O)CC6)CC5)cc4)ncc3F)cc2n1C(C)C (centres unmarked) [Compound 39]	1 to 5 µM
Cc1nc2c(F)cc(-c3nc(Nc4ccc(S(=O)(=O)N5CC(C(=O)N6CCC7(CC6)CCN(c6cccc8c6C(=O)N(C6CCC(=O)NC6=O)C8=O)CC7)C5)cc4)ncc3F)cc2n1C(C)C (centres unmarked) [Compound 40]	> 10 µM
C[C@@]1(O)CCC[C@H]1n1c(=O)ccc2cnc(Nc3ccc(S(=O)(=O)C4CCN(CC5CCN(c6cccc7c6C(=O)N(C6CCC(=O)NC6=O)C7=O)CC5)CC4)cc3)nc21 (some centres unmarked) [Compound 44]	> 10 µM
C[C@@]1(O)CCC[C@H]1n1c(=O)ccc2cnc(Nc3ccc(S(=O)(=O)C4CCN(C5CCC6(CC5)CN(c5cc7c(cc5F)C(=O)N(C5CCC(=O)NC5=O)C7=O)C6)CC4)cc3)nc21 (some centres unmarked) [Compound 45]	> 10 µM
Cc1nc2c(F)cc(-c3nc(Nc4ccc(S(=O)(=O)C5CCN(C6CC7(CCN(c8cc9c(cc8F)C(=O)N(C8CCC(=O)NC8=O)C9=O)CC7)C6)CC5)cc4)ncc3F)cc2n1C(C)C (centres unmarked) [Compound 46]	0.101 to 1 µM
Cc1nc2c(F)cc(-c3nc(Nc4ccc(S(=O)(=O)NCCOCCNc5cccc6c5C(=O)N(C5CCC(=O)NC5=O)C6=O)cc4)ncc3F)cc2n1C(C)C (centres unmarked) [Compound 47]	1 to 5 µM
Cc1nc2c(F)cc(-c3nc(Nc4ccc(S(=O)(=O)NCCOCCOCCOCCNc5cccc6c5C(=O)N(C5CCC(=O)NC5=O)C6=O)cc4)ncc3F)cc2n1C(C)C (centres unmarked) [Compound 48]	1 to 5 µM
Cc1nc2c(F)cc(-c3nc(Nc4ccc(S(=O)(=O)NCCOCCOCCNc5cccc6c5C(=O)N(C5CCC(=O)NC5=O)C6=O)cc4)ncc3F)cc2n1C(C)C (centres unmarked) [Compound 49]	1 to 5 µM
Cc1nc2c(F)cc(-c3nc(Nc4ccc(S(=O)(=O)NCCOCc5cn(CCOCCOCCNc6cccc7c6C(=O)N(C6CCC(=O)NC6=O)C7=O)nn5)cc4)ncc3F)cc2n1C(C)C (centres unmarked) [Compound 50]	1 to 5 µM
CC(C)N1CCOc2c(F)cc(-c3nc(NC4CCN(S(=O)(=O)C5CCN(C6CC7(CCN(c8cc9c(cc8F)C(=O)N(C8CCC(=O)NC8=O)C9=O)CC7)C6)CC5)CC4)ncc3F)cc21 (centres unmarked) [Compound 51]	> 10 µM
CC(C)N1CCOc2c(F)cc(-c3nc(Nc4ccc(S(=O)(=O)N5CCN(C6CN(C7CCN(c8cccc9c8C(=O)N(C8CCC(=O)NC8=O)C9=O)CC7)C6)CC5)cc4)ncc3F)cc21 (centres unmarked) [Compound 52]	1 to 5 µM
CC(C)N1CCOc2c(F)cc(-c3nc(Nc4ccc(S(=O)(=O)N5CCN(C(=O)C6CCN(c7cccc8c7C(=O)N(C7CCC(=O)NC7=O)C8=O)CC6)CC5)cc4)ncc3F)cc21 (centres unmarked) [Compound 53]	> 10 µM
CC(C)N1CCOc2c(F)cc(-c3nc(Nc4ccc(S(=O)(=O)N5CCN(CC6CCN(c7cccc8c7C(=O)N(C7CCC(=O)NC7=O)C8=O)CC6)CC5)cc4)ncc3F)cc21 (centres unmarked) [Compound 54]	> 10 µM
CC(C)N1CCOc2c(F)cc(-c3nc(Nc4ccc(S(=O)(=O)N5CCN(C6CCN(C7CN(c8cccc9c8C(=O)N(C8CCC(=O)NC8=O)C9=O)C7)CC6)CC5)cc4)ncc3F)cc21 (centres unmarked) [Compound 55]	> 10 µM
Cc1nc2c(F)cc(-c3nc(Nc4ccc(S(=O)(=O)N5CCN(C6CCN(C7CN(c8cccc9c8C(=O)N(C8CCC(=O)NC8=O)C9=O)C7)CC6)CC5)cc4)ncc3F)cc2n1C(C)C (centres unmarked) [Compound 56]	1 to 5 µM
Cc1nc2c(F)cc(-c3nc(Nc4ccc(S(=O)(=O)N5CCN(CC6CCN(c7cccc8c7C(=O)N(C7CCC(=O)NC7=O)C8=O)CC6)CC5)cc4)ncc3F)cc2n1C(C)C (centres unmarked) [Compound 57]	0.101 to 1 µM

Same assay, conditions: luminescence, read-out: IC50, inhibitory effect on cellular proliferation

SMILES	IC50
CC(C)N1CCOc2c(F)cc(-c3nc(Nc4ccc(C5CCN(CCCCCCOc6cccc7c6C(=O)N(C6CCC(=O)NC6=O)C7=O)CC5)cn4)ncc3F)cc21 (centres unmarked) [Compound 3]	> 10 µM
